Test results taken from publication PMC11253866 (RSC Medicinal Chemistry, 2024).
Like-named read-outs stand apart in the source and are kept apart here. Marks after values point to notes of the source that are not given here.

What was measured:
[1] = Liver microsome stability assessment; format: in vitro ADME, rat; details: LCMS analysis of liver microsome assay mixtures
[2] = scale 0–6, cited from earlier work

| Structure (SMILES) | major metabolic route [1] | CNS MPO score [2] | CNS MPO score ([2]; listed as gabapentin) |
| --- | --- | --- | --- |
| CNCCCOc1ccc(S(=O)(=O)N2c3ccccc3Oc3ccccc32)cc1.O=C(O)C(F)(F)F [Compound 4a, 3-(4-((10H-Phenoxazin-10-yl)sulfonyl)phenoxy)-N-methylpropan-1-amine.TFA] | demethylation |  |  |
| CN(C)CCCOc1ccc(S(=O)(=O)N2c3ccccc3Oc3ccccc32)cc1.O=C(O)C(F)(F)F [Compound 4b, 3-(4-((10H-Phenoxazin-10-yl)sulfonyl)phenoxy)-N,N-dimethylpropan-1-amine.TFA] | demethylation |  |  |
| NCC1(CC(=O)O)CCCCC1 [Gabapentin] |  | 4.2 ^a | 4.2 |
| CN(C)CCCN1c2ccccc2CCc2ccc(Cl)cc21 [clomipramine] |  | 3.1 |  |
| CNCCC=C1c2ccccc2CCc2ccccc21 [nortriptyline] |  | 3.3 |  |
| COc1cccc(C2(O)CCCCC2CN(C)C)c1 (stereo not shown) [tramadol] |  | 4.6 |  |
